Experiments:
in vitro [1] = conditions: rat
[2] = PAMPA
in vitro [3] = conditions: PAMPA
[4] = rat, microsomes

Compound | half-life (in vitro [1]; liver microsomes) | Papp (in vitro [3]) | also measured
O=C(Nc1c(Cl)cc([N+](=O)[O-])cc1Cl)c1cc(Cl)ccc1O | 20 min | – | –
COc1ccc(Cl)cc1C(=O)Nc1ccc([N+](=O)[O-])cc1Cl | 27 min | – | permeability [2]: 1007 10^-6 cm/s
O=C(Nc1ncc([N+](=O)[O-])s1)c1cc(Cl)ccc1O | 3 min | 37 ×10⁻⁶ cm/s | –
O=C(Nc1ccc([N+](=O)[O-])cc1)c1cc(Cl)ccc1O | – | – | permeability [2]: 127.1 10^-6 cm/s; Stabilty [4]: 22 min
O=C(Nc1ccc(Cl)cc1)c1cc(Cl)ccc1O | 14 min | 297 ×10⁻⁶ cm/s | –
O=C(Nc1ccc(C(F)(F)F)cc1)c1cc(Cl)ccc1O | > 30 min | < 22.3 ×10⁻⁶ cm/s | –
Nc1ccc(NC(=O)c2cc(Cl)ccc2O)c(Cl)c1 | 30 min | 152 ×10⁻⁶ cm/s | –
Cc1ccc(O)c(C(=O)Nc2ccc([N+](=O)[O-])cc2Cl)c1 | 19.5 min | 134 ×10⁻⁶ cm/s | –
O=C(Nc1ccc(F)cc1)c1cc(Cl)ccc1O | 18.4 min | – | permeability [2]: 390.8 10^-6 cm/s
COc1ccc(NC(=O)c2cc(Cl)ccc2O)cc1 | 3.3 min | 81 ×10⁻⁶ cm/s | –
O=C(Nc1ccc(C(F)(F)F)cc1Cl)c1cc(Cl)ccc1O | > 30 min | – | –
O=C(Nc1ccc(F)cc1F)c1cc(Cl)ccc1O | 18 min | – | –
O=C(Nc1c(F)cccc1F)c1cc(Cl)ccc1O | > 30 min | 32 ×10⁻⁶ cm/s | –
O=C(Nc1ccc(F)c(Cl)c1)c1cc(Cl)ccc1O | 11 min | – | –
O=C(Nc1ccccc1C(F)(F)F)c1cc(Cl)ccc1O | 15 min | 26 ×10⁻⁶ cm/s | –
O=C(Nc1ccc([N+](=O)[O-])cc1Cl)c1cc(Cl)ccc1OC1CCNCC1 | > 30 min | 517 ×10⁻⁶ cm/s | –
NCCOc1ccc(Cl)cc1C(=O)Nc1ccc([N+](=O)[O-])cc1Cl | > 30 min | – | permeability [2]: 1023 10^-6 cm/s
O=C(Nc1ccccc1[N+](=O)[O-])c1cc(Cl)ccc1O | – | 153 ×10⁻⁶ cm/s | –
CC(=O)Nc1ccc(NC(=O)c2cc(Cl)ccc2O)c(Cl)c1 | > 30 min | 87 ×10⁻⁶ cm/s | –
Cc1ccc(NC(=O)c2cc(Cl)ccc2O)cc1 | 1.6 min | 21 ×10⁻⁶ cm/s | –
O=C(Nc1ccc([N+](=O)[O-])cc1Cl)c1ccc2ccccc2c1O | 16.6 min | 90.2 ×10⁻⁶ cm/s | –
O=C(Nc1ccc(C(F)(F)F)cc1)c1cc(Br)ccc1O | > 30 min | – | –
O=C(Nc1ccccc1Cl)c1cc(Cl)ccc1O | 19 min | – | permeability [2]: 118 10^-6 cm/s

Compound | half-life (in vitro [1]; liver microsomes) | Papp (in vitro [3]) | also measured
O=C(Nc1ccc(Cl)cc1Cl)c1cc(Cl)ccc1O | > 30 min | < 22.4 ×10⁻⁶ cm/s | –
O=C(Nc1c(Cl)cccc1Cl)c1cc(Cl)ccc1O | 24 min | 73 ×10⁻⁶ cm/s | –
O=C(Nc1ccc(F)cc1Cl)c1cc(Cl)ccc1O | 19.3 min | 50.5 ×10⁻⁶ cm/s | –
N#Cc1ccc(NC(=O)c2cc(Cl)ccc2O)c(Cl)c1 | > 30 min | 5.1 ×10⁻⁶ cm/s | –
O=C(Nc1ccc([N+](=O)[O-])c(Cl)c1)c1cc(Cl)ccc1O | 3.8 min | 68 ×10⁻⁶ cm/s | –
O=C(Nc1ccncc1Cl)c1cc(Cl)ccc1O | > 30 min | 31 ×10⁻⁶ cm/s | –
COc1cc([N+](=O)[O-])ccc1NC(=O)c1cc(Cl)ccc1O | > 30 min | – | –
O=C(Nc1ccc([N+](=O)[O-])cc1Cl)c1c(O)ccc2ccccc12 | 14.4 min | 356 ×10⁻⁶ cm/s | –
CS(=O)(=O)Nc1ccc(Br)cc1C(=O)Nc1ccc([N+](=O)[O-])cc1Cl | > 30 min | 85.1 ×10⁻⁶ cm/s | –
CC(C)c1cnc(NC(=O)c2cc(Cl)ccc2O)s1 | 2 min | 117 ×10⁻⁶ cm/s | –
COc1ccc(Cl)c(NC(=O)c2cc(Cl)ccc2O)c1 | 5.4 min | 34 ×10⁻⁶ cm/s | –
N#Cc1ccc(NC(=O)c2ccc3ccccc3c2O)c(Cl)c1 | 27 min | 111 ×10⁻⁶ cm/s | –
CN1CCC(NC(=O)c2cc(Cl)ccc2O)CC1 | 1.8 min | 212 ×10⁻⁶ cm/s | –
CC(=O)c1ccc(O)c(C(=O)Nc2ccc([N+](=O)[O-])cc2Cl)c1 | > 30 min | 33.1 ×10⁻⁶ cm/s | –
COc1cccc(NC(=O)c2cc(Cl)ccc2O)c1 | 4 min | 43 ×10⁻⁶ cm/s | –
COc1cc([N+](=O)[O-])ccc1NC(=O)c1cc(Br)ccc1O | > 30 min | – | –
O=C(Nc1ccc([N+](=O)[O-])c2ccccc12)c1cc(Cl)ccc1O | 10.7 min | 141 ×10⁻⁶ cm/s | –
O=C(Nc1ccc(C(F)(F)F)c(Cl)c1)c1cc(Br)ccc1O | > 30 min | 23.2 ×10⁻⁶ cm/s | –
CC(=O)Nc1ccccc1C(=O)Nc1ccc([N+](=O)[O-])cc1Cl | – | 431 ×10⁻⁶ cm/s | –
N#Cc1ccc(NC(=O)c2cc(-c3ccc(F)cc3F)ccc2O)c(Cl)c1 | > 30 min | – | –
CN(C)C(=O)c1cccc(NC(=O)c2cc(Cl)ccc2O)c1 | 26 min | 5 ×10⁻⁶ cm/s | –
O=C(Nc1ccc([N+](=O)[O-])cc1Cl)c1cc(Cl)ccc1NS(=O)(=O)c1ccccc1 | > 30 min | – | permeability [2]: 2250 10^-6 cm/s
O=C(Nc1ccc([N+](=O)[O-])cc1Cl)c1cnc2ccccc2c1O | 18 min | 499 ×10⁻⁶ cm/s | –

Compound | half-life (in vitro [1]; liver microsomes) | Papp (in vitro [3]) | also measured
O=C(Nc1ccc([N+](=O)[O-])cc1Cl)c1cc(-c2ccc(F)cc2F)ccc1O | > 30 min | < 23.7 ×10⁻⁶ cm/s | –
Nc1cccc(Cl)c1C(=O)Nc1ccc([N+](=O)[O-])cc1Cl | 2.2 min | 450 ×10⁻⁶ cm/s | –
O=C(Nc1ccc([N+](=O)[O-])c(Cl)c1)c1cc(Br)ccc1O | 20.3 min | – | –
N#Cc1ccc(NC(=O)c2cccc3cc[nH]c23)c(Cl)c1 | 15 min | 553 ×10⁻⁶ cm/s | –
NS(=O)(=O)c1ccc(NC(=O)c2cc(Cl)ccc2O)cc1 | > 30 min | < 1 ×10⁻⁶ cm/s | –
O=C(Nc1c(Cl)cc(F)cc1Cl)c1cc(Cl)ccc1O | 13 min | 25 ×10⁻⁶ cm/s | –
Nc1ccc(Cl)cc1C(=O)Nc1ccc([N+](=O)[O-])cc1Cl | 8.7 min | 671 ×10⁻⁶ cm/s | –
O=C(Nc1ccc([N+](=O)[O-])cc1Cl)c1cc([N+](=O)[O-])ccc1O | > 30 min | 30.3 ×10⁻⁶ cm/s | –
O=C(Nc1ccc2cc([N+](=O)[O-])ccc2c1)c1cc(Cl)ccc1O | > 30 min | 447 ×10⁻⁶ cm/s | –
O=C(Nc1ccc([N+](=O)[O-])cc1Cl)c1c(O)cccc1O | 26.2 min | – | –
O=C(Nc1ccc(C(F)(F)F)cc1Cl)c1ccc2ccccc2c1O | > 30 min | – | –
O=C(Nc1ccc(C(F)(F)F)c(F)c1)c1cc(Br)ccc1O | > 30 min | – | –
O=C(Nc1ccc([N+](=O)[O-])cc1Cl)c1ccc(Cl)cc1O | 21.2 min | – | –
O=C(Nc1ccc(C(F)(F)F)cc1Cl)c1cc(-c2ccc(F)cc2F)ccc1O | > 30 min | – | –
COc1ccc(C(=O)Nc2ccc([N+](=O)[O-])cc2Cl)c(O)c1 | > 30 min | < 3 ×10⁻⁶ cm/s | –
Cc1cccc(NC(=O)c2cc(Cl)ccc2O)c1C | 9.4 min | 48 ×10⁻⁶ cm/s | –
O=C(Nc1ccc([N+](=O)[O-])cc1Cl)c1cccc2cc[nH]c12 | > 30 min | – | permeability [2]: 1763 10^-6 cm/s
COc1ccc(O)c(C(=O)Nc2ccc([N+](=O)[O-])cc2Cl)c1 | 17.8 min | 67.1 ×10⁻⁶ cm/s | –
O=C(Nc1ccc(C(F)(F)F)cc1Cl)c1cc(Br)ccc1O | > 30 min | – | –
O=C(Nc1ccc([N+](=O)[O-])cc1Cl)c1cc(Br)ccc1O | > 30 min | 67.1 ×10⁻⁶ cm/s | –
O=C(Nc1ccc([N+](=O)[O-])cc1Cl)c1cc(Cl)ccc1O [NICLOSAMIDE] | – | < 1 ×10⁻⁶ cm/s | half-life (in vitro [1]; microsomes): > 30 min

Reference: ChEMBL document CHEMBL4819045 (Bioorg Med Chem Lett, 2021)
